Consider six compounds from patent US8481501B2 (priority 2004, dated 2013).

Series [1] deals with T1, kappa opioid receptor (Homo sapiens, UniProt P41145). Further details: expressed in transfected cells; host or cells: transfected cells. To be noted: Table 6, data from reference 6, cited from earlier work.
The target of series [2] is T2, delta opioid receptor (Homo sapiens, UniProt P41143). Further details: expressed in transfected cells; host or cells: transfected cells. To be noted: read-out: Ki δ; Table 5; data taken from MacDougall et al.; cited from earlier work.
The target of series [3] is T1, kappa opioid receptor. Kind of series: biochemical. The format is biochemical. Further details: expressed in transfected cells; host or cells: transfected cells. To be noted: for Emax: read-out: kappa % stimulation.
The nature of series [4]: Metabolic stability in mouse liver microsomes. Particulars: for MLM t 1/2: 1.2 mg/mL MLM, 0.1 mM compound. On the technique in general: Microsomes from liver hold many membrane-bound enzymes, among them those of drug oxidation.
Series [5] has as its target T2, delta opioid receptor. Kind of series: Stimulation of [35S]GTPγS binding (coupling to G proteins). The format is biochemical. Further details: expressed in transfected cells; host or cells: transfected cells. Particulars: for agonist/antagonist character at the delta receptor: based on [35S]GTPγS binding.
Series [6] concerns the target T1, kappa opioid receptor. Kind of series: biochemical. The format is binding. Further details: expressed in transfected cells; host or cells: transfected cells.
Series [7] is described as follows: Metabolic stability in human liver pooled S9. To be noted: for HLS9 t 1/2: 3.2 mg/mL HLS9, 0.1 mM compound.
Series [8] has as its target T2, delta opioid receptor. Kind of series: biochemical. The format is binding. Further details: expressed in transfected cells; host or cells: transfected cells.
The target in series [9] is T2, delta opioid receptor. Further details: expressed in transfected cells; host or cells: transfected cells. Particulars: Table 6, data from reference 6, cited from earlier work; for EC50: read-out: δ EC50.
The target in series [10] is T1, kappa opioid receptor. Kind of series: Ke at kappa, CHO membranes. It counts as biochemical. Further details: expressed in transfected cells; host or cells: CHO. Particulars: Table 7, CHO membranes.
Series [11] concerns adult male rats. Kind of series: Precipitation of somatic signs of withdrawal after acute morphine. To be noted: s.c., 4 hr after morphine 5.0 mg/kg. The format is in vivo, rat.
For series [12], the system named is adult male rats. Particulars: literature standard, Schulteis et al.; cited from earlier work.
Series [13] can be described thus: Chemical stability at pH 2.0 and pH 7.4, HPLC.
Text: The chemical stability of selected compounds were examined at pH 7.4 and pH 2.0. […] Then HPLC was used to analyze the decomposition of the starting material.
For series [14] the following is noted: Penson et al.; cited from earlier work.
The target in series [15] is T1, kappa opioid receptor. Further details: expressed in transfected cells; host or cells: transfected cells. To be noted: read-out: Ki κ; Table 5; data taken from MacDougall et al.; cited from earlier work.
In the next series the test system is heroin-dependent rats. Nature of the series: Heroin self-administration in heroin-dependent rats. It counts as in vivo, rat. To be noted: s.c. 15 mins prior to dark phase; doses 13e 0.04, 13g 0.2, M6G 0.04, 13h 0.01, 0.04, 0.2 mg/kg.
The nature of series [16]: Metabolic stability in rat liver microsomes.
In series [17] the target is T2, delta opioid receptor. Nature of the series: Ke at delta, CHO membranes. Particulars: Table 7, CHO membranes. The format is biochemical. Further details: expressed in transfected cells; host or cells: CHO.
Setting [18] is: Table 7, CHO membranes, read-out: Ki kappa.
[19] abbreviates: Table 7, CHO membranes, read-out: Ki delta.
[20] abbreviates: Table 9, ND, No Detectable change.

Molecules are shown by their SMILES. Where two headings read alike, the source gives them in different places.

T1 sequence (P41145 whole entry): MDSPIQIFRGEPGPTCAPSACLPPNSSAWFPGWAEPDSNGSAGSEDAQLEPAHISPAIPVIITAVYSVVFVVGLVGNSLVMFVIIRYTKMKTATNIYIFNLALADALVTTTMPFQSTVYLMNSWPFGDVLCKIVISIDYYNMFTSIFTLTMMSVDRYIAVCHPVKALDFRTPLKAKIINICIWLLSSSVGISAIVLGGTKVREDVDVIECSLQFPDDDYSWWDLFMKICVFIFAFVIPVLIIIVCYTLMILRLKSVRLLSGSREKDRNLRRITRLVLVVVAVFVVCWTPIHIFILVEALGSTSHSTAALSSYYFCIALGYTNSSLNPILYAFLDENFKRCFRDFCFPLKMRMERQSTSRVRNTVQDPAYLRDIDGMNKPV
T2 sequence (P41143 whole entry): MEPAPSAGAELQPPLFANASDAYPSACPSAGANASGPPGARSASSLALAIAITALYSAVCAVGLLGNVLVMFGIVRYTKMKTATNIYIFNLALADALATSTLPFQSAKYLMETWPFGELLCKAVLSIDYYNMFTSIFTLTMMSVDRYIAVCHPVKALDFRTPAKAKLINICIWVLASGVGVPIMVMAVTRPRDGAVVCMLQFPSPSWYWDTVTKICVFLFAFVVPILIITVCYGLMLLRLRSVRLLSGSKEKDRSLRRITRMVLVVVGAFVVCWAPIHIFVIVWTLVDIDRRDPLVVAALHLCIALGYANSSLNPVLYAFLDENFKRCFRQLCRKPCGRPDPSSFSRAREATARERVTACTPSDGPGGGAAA

The melting point is the temperature of the solid-liquid transition. `CN1CCC23c4c5ccc(O)c4OC2C(SC2O[C@H](CO)[C@@H](O)[C@H](O)[C@H]2O)C=CC3C1C5` (stereo partly drawn) [4b, 6β-Thiomorphine-6β-S-D-glucopyranoside]: the melting point is > 300 °C (dec.). In addition, the “κ Emax” value on kappa opioid receptor [1] (ND: No detectable activity) was 42.5 ± 2.5. For the same compound, on kappa opioid receptor [1] (read-out: κ EC50), the EC50 was 321 ± 93 nM. At delta opioid receptor [2], the Ki is 56.2 ± 2.2 nM. For the same compound, the Emax on kappa opioid receptor [3] (Table 2) turned out to be 42.5 ± 2.5%. Further, the EC50 on kappa opioid receptor [3] (Table 2, read-out: kappa EC50) stood at 321 ± 93.1 nM. In addition, in series [4], the “MLM t 1/2” value is recorded as “stable”. Also, on delta opioid receptor [5] (Table 2), the Emax was 51.5% and the delta % stimulation was 51.5 ± 6.5%. On delta opioid receptor [5] (delta EC50, Table 2), this compound gave an EC50 of 192 ± 14.8 nM. The Ki on kappa opioid receptor [6] (Table 1, read-out: Ki κ) was 136 ± 16.9 nM. For the same compound, the “HLS9 t 1/2” value in series [7] is recorded as “stable”. The Ki on delta opioid receptor [8] (Table 1, read-out: Ki δ) amounted to 56.2 ± 2.15 nM. For the same compound, at delta opioid receptor [9], the “δ Emax” value was 51.5 ± 6.5 and the EC50 was 192 ± 15 nM.

Regarding `O=C(CC1OC(CO)C(O)C(O)C1O)NC1CCC2(O)C3Cc4ccc(O)c5c4C2(CCN3CC2CC2)C1O5` (stereo not drawn) [6a, 14-Hydroxy-17-(cyclopropylmethyl)nordesmorphine-6-acetamidoglucose], the values for the Emax on kappa opioid receptor [3] (Table 8) and on delta opioid receptor [5] (Table 8) were 11% and 43.1%, respectively. In addition, the EC50 at kappa opioid receptor [3] (Table 8, read-out: kappa EC50) worked out at 11.2 nM; on delta opioid receptor [5] (Table 8, read-out: delta EC50) it was 90.9 nM. The “agonist/antagonist character at the kappa receptor” value at kappa opioid receptor [3] (based on [35S]GTPγS binding) is reported as “strong antagonist”. Also, the “Ke(other) (kappa)” value at kappa opioid receptor [10] was 13.39 ± 1.51. Besides, on delta opioid receptor [5], the “agonist/antagonist character at the delta receptor” value was “partial agonist”. At kappa opioid receptor [6] (Table 7, CHO membranes), the Ki kappa entry is reported as “moderate affinity”. Also, the Ki at kappa opioid receptor [6] (setting [18]) was found to be 10.4 ± 2.8 nM; on delta opioid receptor [8] (setting [19]) it was 91.3 ± 3.8 nM. The “approximate EC50 for precipitation of somatic signs of withdrawal” value with adult male rats [11] is given as “approximately 1 mg/kg”. Also, the Ki delta entry at delta opioid receptor [8] (Table 7, CHO membranes) is on record as “moderate affinity”.

Take `C=CCN1CC[C@]23c4c5ccc(O)c4O[C@H]2C(=O)CC[C@@]3(O)[C@H]1C5` [naloxone]: in the series with adult male rats [12], the “minimum effective dose to precipitate somatic signs of withdrawal” value was 0.1 to 0.3 mg/kg.

Turning to `CN1CCC23c4c5ccc(O)c4OC2C(OC2O[C@H](C(=O)O)[C@@H](O)[C@H](O)[C@H]2O)C=CC3C1C5` (stereo partly drawn) [M6G, Morphine-6-glucuronide, reference compound], the Ki on delta opioid receptor [2] is 170 ± 1 nM; at kappa opioid receptor [6] (Table 1, read-out: Ki κ), 4060 ± 230 nM; at kappa opioid receptor [15] it was 4060 ± 230 nM; at delta opioid receptor [8] (Table 1, read-out: Ki δ) it was 161 ± 0.73 nM. The EC50 is more than 10000 nM at kappa opioid receptor [3] (Table 8, read-out: kappa EC50); 190 ± 22.9 nM on delta opioid receptor [5] (delta EC50, Table 2); 190 ± 22.9 nM on delta opioid receptor [5] (delta EC50, Table 8); 190 ± 20 nM at delta opioid receptor [9]. In addition, in series [13] (pH 2.0), the “pH 2.0 t 1/2” value is “stable”. Besides, the “pH 7.4 t 1/2” value in series [13] (pH 7.4) is listed as “stable”. In addition, the “MLM t 1/2” value in series [4] was “stable”. In [14], the oral bioavailability was 11%. Further, the Emax at delta opioid receptor [5] (Table 2) was found to be 80%. The compound also registered a delta % stimulation on delta opioid receptor [5] (Table 8) of 80.0 ± 1.0%. For the same compound, the “HLS9 t 1/2” value in series [7] is reported as “stable”. Further, at delta opioid receptor [9], the “δ Emax” value is given as 80.0 ± 1.0. Moreover, the “effect on heroin self-administration” value with heroin-dependent rats is on record as “effective at reducing heroin self-administration”.

Usually half-life stands for the time in which the quantity being followed falls by half. For the compound `COc1cccc(C(=O)NC2CCC3(O)C4Cc5ccc(O)c6c5C3(CCN4CC3CC3)C2O6)c1` (stereo not drawn) [6d, 6-(3′-Methoxy)benzamido-14-hydroxy-17-(cyclopropylmethyl)nordesmorphine], at kappa opioid receptor [3], the EC50 worked out at 1.7 nM, the “agonist/antagonist character at the kappa receptor” value is listed as “partial or full or partial agonism” and the Emax amounted to 109%. In series [4] (setting [20]), the “Half life in Mouse liver microsomes” value is listed as “not detectably metabolized”. Moreover, in series [16] (rat liver microsomes), the “fold more stable than nalmefene” value is 22 fold and the “fold more stable than naltrexone” value was 6 fold. For the same compound, the half-life at 0.1 mM in [16] (rat, microsomes, pH 7.4) is more than 9.08 h. The same compound showed an Emax on delta opioid receptor [5] (Table 8) of 98.7%. In addition, the EC50 at delta opioid receptor [5] (Table 8, read-out: delta EC50) was found to be 11.1 nM. The “agonist/antagonist character at the delta receptor” value at delta opioid receptor [5] was “partial or full or partial agonism”. For the same compound, on kappa opioid receptor [6], the Ki was 0.6 ± 0.01 nM. Besides, in series [7] (setting [20]), the “Half life in Human liver S-9” value is “not detectably metabolized”. Moreover, in the series with adult male rats [11], the “approximate EC50 for precipitation of somatic signs of withdrawal” value is “less than 0.1 mg/kg” and the “dose at which somatic signs of withdrawal peaked” value turned out to be 0.3 mg/kg. For the same compound, at delta opioid receptor [8] (setting [19]), the Ki is 10.6 ± 1.2 nM.

Regarding `O=C(C[C@@H]1O[C@H](COCc2ccccc2)[C@@H](OCc2ccccc2)[C@H](OCc2ccccc2)[C@H]1OCc1ccccc1)NC1CC[C@@]2(O)[C@H]3Cc4ccc(O)c5c4[C@@]2(CCN3CC2CC2)[C@H]1O5` (stereo partly drawn) [compound 5, 6-acetamido-2,3,4,6-tetra-O-benzyl-D-glucopyranosyl-14-Hydroxy-17-(cyclopropylmethyl)nordesmorphine], the Emax turned out to be 45.5% at kappa opioid receptor [3] (Table 8) and 20.5% at delta opioid receptor [5] (Table 8). The EC50 was 10.8 nM at kappa opioid receptor [3] (Table 8, read-out: kappa EC50) and 107 nM on delta opioid receptor [5] (Table 8, read-out: delta EC50). Further, on delta opioid receptor [17], the “Ke(other) (delta)” value was 10.35 ± 2.01. Moreover, the Ki kappa entry at kappa opioid receptor [6] (Table 7, CHO membranes) is “moderate affinity”. Also, the figures for the Ki on kappa opioid receptor [6] (setting [18]) and on delta opioid receptor [8] (setting [19]) were 39 ± 6.3 nM and 140 ± 13.9 nM, respectively. Further, the Ki delta result at delta opioid receptor [8] (Table 7, CHO membranes) is “low affinity”.
